This experiment concerns A2780cp20-Luc tumors. Kind of experiment: Orthotopic A2780cp20-Luc ovarian cancer model. In kind it is in vivo, mouse. The source says:
Female nude mice were intraperitoneally (i.p.) inoculated with […] tumor cells. […] Tumor growth was monitored by bioluminescence imaging (IVIS). […] CTL, untreated control.
Orthotopic ovarian cancer models. […] For all therapeutic experiments, groups of the mice (n=8-10) were inoculated intraperitoneally with A2780cp20-Luc cells. […] Untreated mice were used as a control.
Immunoblotting, immunoprecipitation, and co-immunoprecipitation. For immunoblotting, lysates from cultured cells were prepared using modified radioimmunoprecipitation assay (RIPA) buffer (50 mM Tris-HCl [pH 7.4], 150 mM NaCl, 1% Triton, 0.5% deoxycholate) plus 25 μg/mL leupeptin, 10 μg/mL aprotinin, 2 mM EDTA, and 1 mM sodium orthovanadate. To prepare lysates of snap-frozen tissue from mice, approximately 30-mm^3 cuts of tissue were disrupted with a tissue homogenizer and subjected to centrifugation at 13,000 rpm for 30 min in modified RIPA buffer. The protein concentrations were determined by using a BCA Protein Assay Reagent kit (Pierce Biotechnology, Rockford, IL). Lysates were loaded and separated by 8% sodium dodecyl sulfate (SDS)-polyacrylamide gel electrophoresis (PAGE). Proteins were transferred to a nitrocellulose membrane by semidry electrophoresis (Bio-Rad Laboratories, Hercules, CA) overnight, blocked with 3% BSA for 1 h, and then incubated at 4° C. with primary antibody overnight. After washing with a mixture of tris-buffered saline and Tween 20 (TBST) solutions, the membranes were incubated with horseradish peroxidase (HRP)-conjugated horse anti-mouse IgG (1:2000, GE Healthcare, Amersham Place, UK) for 2 h. HRP was visualized by an enhanced chemoluminescence detection kit (Pierce). […] Densitometry was performed using ImageJ software. For immunoprecipitation and co-immunoprecipitation, cells were subjected to lysis in non-denaturing NP40 cell lysis buffer (Cell Signaling Technology, Boston, MA). The extracts were incubated with A/G-conjugated antibody at 4° C. for 2 h, and for immunoprecipitation the beads were washed twice with RIPA buffer, once with 0.5 m LiCl in 0.1 m Tris (pH 8.0), and once with PBS. Reactions were boiled in sample buffer, and proteins were then subjected to 10% SDS-PAGE and immunoblotting.
Immunofluorescence analysis of CD31 was performed on 5-μm-thick fresh-frozen tissue samples. After deblocking with acetone, acetone-chloroform (1:1), and acetone for 5 min, non-specific binding was blocked with 4% fish gelatin (Biotium Inc, Hayward, CA) in PBS for 30 min.
Immunohistochemistry (IHC) analysis.

On to “CCPM-BIDEN-AP: nano-conjugate of Cys-BIDEN-AP on core-crosslinked polymeric micelles via maleimide (GMBS) (CTNYLFSPNGPIARAW; D-residues)”, for which the bioluminescence signal intensity result (day 28, 13 mg/kg/injection i.p., 10 doses) is given as “significantly reduced the bioluminescence signal intensity”. Also, the “metastatic nodules, comparison of the two agents” value (day 31) is “reduced metastatic nodules to a greater extent than BIDEN-AP”. The “tumor growth in the peritoneum (tumor weight, number of metastatic nodules)” value (day 31, 13 mg/kg/injection i.p., 10 doses) is “significantly reduced tumor growth”. Besides, for the setting “excised tumors”, the “apoptotic cell death in CD31 endothelial vasculature (TUNEL)” value is “induced apoptotic cell death” and the “tumor cell proliferation (Ki67-positive cells)” value was “significantly reduced tumor cell proliferation”. In addition, the “microvessel density (MVD)” value (excised tumors, CD31) is on record as “decreased microvessel density”. In addition, where the note is “orthotopic A2780cp20 tumors”, the “EphB4 and Crk1 phosphorylation in vivo” value is “induce EphB4 and Crk1 phosphorylation”.

The values above are taken from patent US12448425B2, “Therapeutic peptides” (Board of Regents, The University of Texas System, priority 2019, dated 2025).
